In the supplement of paper PMC6335503:
± gives the standard deviation of the averaged measurements.

What was measured:
Assay in all cases: cell viability, percent of DMSO control (CellTiter-Glo); higher = more viable cells
Details in all cases: 72 h
[1] = tested on: DFTD cell line T1 (06/2887)
Method: (§1)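 Eight-point dose titration of 41 screen hits in triplicate wells on four Tasmanian devil DFTD tumour cell lines (T1-T4) and devil fibroblasts, 384-well plates. Viability was read by CellTiter-Glo (ATP) after 72 h at 37 °C. Percent of control per plate: DMSO wells = 100%, positive-control wells = 0%.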

[2] = tested on: DFTD cell line T2 (05/2569)
Method: as §1

[3] = tested on: DFTD cell line T3 (06/0368)
Method: as §1

[4] = tested on: DFTD cell line T4 (07/0192)
Method: as §1

Row | SMILES | cell viability ([1]; 0.00617 µM) | cell viability ([1]; 0.0185 µM) | cell viability ([1]; 0.0556 µM) | cell viability ([1]; 0.166667 µM) | cell viability ([1]; 0.5 µM) | cell viability ([1]; 1.5 µM) | cell viability ([1]; 4.5 µM) | cell viability ([1]; 13.5 µM) | cell viability ([2]; 0.00617 µM) | cell viability ([2]; 0.0185 µM) | cell viability ([2]; 0.0556 µM) | cell viability ([2]; 0.166667 µM) | cell viability ([2]; 0.5 µM) | cell viability ([2]; 1.5 µM) | cell viability ([2]; 4.5 µM) | cell viability ([2]; 13.5 µM) | cell viability ([3]; 0.00617 µM) | cell viability ([3]; 0.0185 µM) | cell viability ([3]; 0.0556 µM) | cell viability ([3]; 0.166667 µM) | cell viability ([3]; 0.5 µM) | cell viability ([3]; 1.5 µM) | cell viability ([3]; 4.5 µM) | cell viability ([3]; 13.5 µM) | cell viability ([4]; 0.00617 µM) | cell viability ([4]; 0.0185 µM) | cell viability ([4]; 0.0556 µM) | cell viability ([4]; 0.166667 µM) | cell viability ([4]; 0.5 µM) | cell viability ([4]; 1.5 µM) | cell viability ([4]; 4.5 µM) | cell viability ([4]; 13.5 µM)
1 | COc1cc2ncnc(Nc3ccc(O)c(Br)c3)c2cc1OC [WHI-P154] | 90.9 ± 16% | 125 ± 11% | 103 ± 4.3% | 86 ± 8.7% | 46.2 ± 6.1% | 36.9 ± 1.8% | 25 ± 6.5% | 21.8 ± 7.4% | 85 ± 18% | 116 ± 23% | 105 ± 11% | 95.7 ± 33% | 58.1 ± 7.2% | 45.3 ± 6.6% | 32.1 ± 2.2% | 20.6 ± 1.1% | 76.9 ± 11% | 125 ± 22% | 98.1 ± 12% | 92 ± 8.6% | 67.7 ± 12% | 55.6 ± 19% | 40.4 ± 8.2% | 32.8 ± 2.4% | 85.6 ± 27% | 134 ± 11% | 115 ± 8.3% | 84.5 ± 18% | 69 ± 21% | 42.4 ± 13% | 30.6 ± 2.3% | 19.7 ± 3%
2 | CCS(=O)(=O)c1cccc(-c2cc(C(=O)NC3CCN(C)CC3)c(C)c3[nH]c4ncc(C)cc4c23)c1 [TAK901] | 104 ± 3.3% | 109 ± 4.1% | 113 ± 30% | 121 ± 45% | 138 ± 43% | 59.4 ± 16% | 12 ± 12% | -4.29 ± 16% | 125 ± 23% | 103 ± 6.1% | 127 ± 49% | 111 ± 46% | 126 ± 57% | 42.4 ± 14% | 1.18 ± 6.5% | -1.98 ± 9.4% | 106 ± 16% | 105 ± 5.8% | 95.9 ± 19% | 98.5 ± 24% | 104 ± 39% | 42.6 ± 8.9% | 4.34 ± 1.3% | -3.65 ± 7.5% | 99.7 ± 11% | 109 ± 12% | 103 ± 14% | 104 ± 27% | 96.7 ± 34% | 26.5 ± 13% | -1.88 ± 6.3% | -6.14 ± 11%
3 | COc1cc2ncnc(Nc3ccc(Cl)cc3F)c2cc1OC | 98.4 ± 38% | 95.7 ± 3.3% | 124 ± 36% | 110 ± 31% | 83.1 ± 28% | 44.3 ± 8.7% | 26.7 ± 7.2% | 36.9 ± 1.4% | 105 ± 20% | 86.8 ± 13% | 112 ± 22% | 116 ± 35% | 85.2 ± 24% | 59.5 ± 9.7% | 27.6 ± 4.8% | 28.3 ± 5% | 120 ± 13% | 89.3 ± 13% | 119 ± 19% | 97.1 ± 20% | 85.5 ± 8.9% | 66.1 ± 8.5% | 43.7 ± 8.6% | 47.2 ± 1.9% | 116 ± 7.2% | 99.5 ± 7.3% | 119 ± 36% | 97 ± 12% | 93.8 ± 12% | 75.3 ± 13% | 45 ± 6.2% | 35.2 ± 3.8%
4 | C=CC(=O)Nc1cc2c(Nc3ccc(F)c(Cl)c3)ncnc2cc1OCCCN1CCOCC1 [Canertinib (CI-1033)] | 118 ± 15% | 106 ± 15% | 109 ± 38% | 98.1 ± 29% | 42.6 ± 10% | 18.3 ± 6.8% | 18.2 ± 11% | 8.82 ± 8.1% | 120 ± 21% | 106 ± 19% | 116 ± 46% | 98 ± 30% | 91.1 ± 8.2% | 33.5 ± 13% | 33.7 ± 6.4% | 13.8 ± 4.8% | 92.6 ± 2.1% | 110 ± 15% | 113 ± 33% | 110 ± 31% | 89 ± 28% | 49.7 ± 10% | 32.5 ± 10% | 38.9 ± 6.2% | 104 ± 6% | 107 ± 12% | 107 ± 19% | 107 ± 14% | 86.1 ± 23% | 39.8 ± 11% | 24 ± 15% | 21 ± 8.1%
